Results taken from the CheMixHub ionic liquid set.

Assay: xn = mol fraction of the nth substance listed

CCCCCCCCn1cc[n+](C)c1.[Cl-] + O
Conditions | electrical conductivity [S/m] | viscosity [mPa·s]
278.15 K, 100 kPa, x1 = 0.0001 | – | 1.534
278.15 K, 100 kPa, x1 = 0.0001668 | – | 1.543
278.15 K, 100 kPa, x1 = 0.0002526 | – | 1.559
278.15 K, 100 kPa, x1 = 0.0003767 | – | 1.575
278.15 K, 100 kPa, x1 = 0.0005495 | – | 1.603
278.15 K, 100 kPa, x1 = 0.000764 | – | 1.642
278.15 K, 100 kPa, x1 = 0.0009813 | – | 1.683
283.15 K, 100 kPa, x1 = 0.0001 | – | 1.316
283.15 K, 100 kPa, x1 = 0.0001668 | – | 1.322
283.15 K, 100 kPa, x1 = 0.0002526 | – | 1.33
283.15 K, 100 kPa, x1 = 0.0003767 | – | 1.346
283.15 K, 100 kPa, x1 = 0.0005495 | – | 1.368
283.15 K, 100 kPa, x1 = 0.000764 | – | 1.404
283.15 K, 100 kPa, x1 = 0.0009813 | – | 1.439
288.15 K, 100 kPa, x1 = 0.0001 | – | 1.151
288.15 K, 100 kPa, x1 = 0.0001668 | – | 1.165
288.15 K, 100 kPa, x1 = 0.0002526 | – | 1.182
288.15 K, 100 kPa, x1 = 0.0003767 | – | 1.206
288.15 K, 100 kPa, x1 = 0.0005495 | – | 1.233
288.15 K, 100 kPa, x1 = 0.000764 | – | 1.27
288.15 K, 100 kPa, x1 = 0.0009813 | – | 1.304
293.15 K, 100 kPa, x1 = 0.0001 | – | 1.01
293.15 K, 100 kPa, x1 = 0.0001668 | – | 1.014
293.15 K, 100 kPa, x1 = 0.0002526 | – | 1.021
293.15 K, 100 kPa, x1 = 0.0003767 | – | 1.031
293.15 K, 100 kPa, x1 = 0.0005495 | – | 1.046
293.15 K, 100 kPa, x1 = 0.000764 | – | 1.068
293.15 K, 100 kPa, x1 = 0.0009813 | – | 1.09
298.15 K, 100 kPa, x1 = 0.0001 | – | 0.898
298.15 K, 100 kPa, x1 = 0.0001668 | – | 0.901
298.15 K, 100 kPa, x1 = 0.0002526 | – | 0.906
298.15 K, 100 kPa, x1 = 0.0003767 | – | 0.916
298.15 K, 100 kPa, x1 = 0.0005495 | – | 0.929
298.15 K, 100 kPa, x1 = 0.000764 | – | 0.947
298.15 K, 100 kPa, x1 = 0.0009813 | – | 0.965
298.15 K, 101.3 kPa, x1 = 4.96e-06 | 0.00314 | –
298.15 K, 101.3 kPa, x1 = 7.53e-06 | 0.00467 | –
298.15 K, 101.3 kPa, x1 = 1.002e-05 | 0.00613 | –
298.15 K, 101.3 kPa, x1 = 1.247e-05 | 0.00756 | –
298.15 K, 101.3 kPa, x1 = 1.481e-05 | 0.00893 | –
298.15 K, 101.3 kPa, x1 = 1.716e-05 | 0.01029 | –
298.15 K, 101.3 kPa, x1 = 1.95e-05 | 0.0116 | –
298.15 K, 101.3 kPa, x1 = 2.177e-05 | 0.0129 | –
298.15 K, 101.3 kPa, x1 = 2.424e-05 | 0.01436 | –
298.15 K, 101.3 kPa, x1 = 2.667e-05 | 0.0158 | –
298.15 K, 101.3 kPa, x1 = 2.939e-05 | 0.0173 | –
303.15 K, 100 kPa, x1 = 0.0001 | – | 0.804
303.15 K, 100 kPa, x1 = 0.0001668 | – | 0.807
303.15 K, 100 kPa, x1 = 0.0002526 | – | 0.812
303.15 K, 100 kPa, x1 = 0.0003767 | – | 0.819
303.15 K, 100 kPa, x1 = 0.0005495 | – | 0.83
303.15 K, 100 kPa, x1 = 0.000764 | – | 0.845
303.15 K, 100 kPa, x1 = 0.0009813 | – | 0.861
308.15 K, 100 kPa, x1 = 0.0001 | – | 0.725
308.15 K, 100 kPa, x1 = 0.0001668 | – | 0.727
308.15 K, 100 kPa, x1 = 0.0002526 | – | 0.732
308.15 K, 100 kPa, x1 = 0.0003767 | – | 0.737
308.15 K, 100 kPa, x1 = 0.0005495 | – | 0.747
308.15 K, 100 kPa, x1 = 0.000764 | – | 0.761
308.15 K, 100 kPa, x1 = 0.0009813 | – | 0.775
313.15 K, 100 kPa, x1 = 0.0001 | – | 0.658
313.15 K, 100 kPa, x1 = 0.0002526 | – | 0.665
313.15 K, 100 kPa, x1 = 0.0003767 | – | 0.669
313.15 K, 100 kPa, x1 = 0.0005495 | – | 0.677
313.15 K, 100 kPa, x1 = 0.000764 | – | 0.689
313.15 K, 100 kPa, x1 = 0.0009813 | – | 0.701

298.15 K, 100 kPa, frequency 0.001 MHz
Conditions | electrical conductivity [S/m]
x1 = 0.001709 | 0.532
x1 = 0.002014 | 0.588
x1 = 0.002301 | 0.647
x1 = 0.00266 | 0.716
x1 = 0.002911 | 0.765
x1 = 0.003215 | 0.824
x1 = 0.003519 | 0.889
x1 = 0.003824 | 0.941
x1 = 0.004074 | 0.978
x1 = 0.004467 | 1.02
x1 = 0.004967 | 1.08
x1 = 0.005947 | 1.16

CCCCCCCCCCCC[N+](C)(C)C.[Br-] + CS(C)=O + O
298 K, 101 kPa
Conditions | electrical conductivity [S/m]
x2 = 0.05957, x1 = 0.0001378 | 0.0321
x2 = 0.09776, x1 = 0.001524 | 0.181

CCCC[P+](c1ccccc1)(c1ccccc1)c1ccccc1.[Br-] + O=S=O + OCCO
100 kPa
Conditions | viscosity [mPa·s]
303.15 K, x2 = 0.01371, x3 = 0.9622 | 22
313.15 K, x2 = 0.01059, x3 = 0.9653 | 18.4
323.15 K, x2 = 0.008625, x3 = 0.9672 | 15.5
333.15 K, x2 = 0.007346, x3 = 0.9684 | 12.9
343.15 K, x2 = 0.005964, x3 = 0.9698 | 11.5

OCCN(CCO)CCO + CC[n+]1ccn(C)c1.O=S(=O)([O-])C(F)(F)F
100 kPa
Conditions | electrical conductivity [S/m] | viscosity [mPa·s]
293.15 K, x1 = 0.084 | – | 52.9
298.15 K, x1 = 0.426 | 0.357 | 65.6
298.15 K, x1 = 0.539 | 0.232 | 87.6
298.15 K, x1 = 0.875 | 0.019 | 320
298.15 K, x1 = 0.969 | 0.00321 | –
298.15 K, x2 = 0.003 | 0.000411 | –
298.15 K, x2 = 0.006 | 0.00071 | –
298.15 K, x2 = 0.017 | 0.00188 | –
303.15 K, x1 = 0.084 | – | 36.1
303.15 K, x1 = 0.167 | – | 37
303.15 K, x1 = 0.641 | – | 87.1
303.15 K, x2 = 0.006 | – | 400
313.15 K, x1 = 0.167 | 1.19 | 26
313.15 K, x1 = 0.723 | 0.185 | 65.8
313.15 K, x2 = 0.003 | 0.00117 | –
313.15 K, x2 = 0.006 | 0.00204 | 198.3

N#C[C-](C#N)C#N.OCC[n+]1ccccc1 + c1ccsc1
101 kPa
Conditions | viscosity [mPa·s]
293.15 K, x1 = 0.7041 | 52.2
293.15 K, x1 = 1 | 137
298.15 K, x1 = 0.901 | 67.1
303.15 K, x1 = 0.4996 | 19.1
303.15 K, x1 = 0.901 | 50.9
318.15 K, x1 = 0.8044 | 21.1
323.15 K, x1 = 0.6 | 12.2
328.15 K, x1 = 0.7041 | 12.6
328.15 K, x1 = 0.901 | 17.9
333.15 K, x1 = 0.4996 | 7.57
333.15 K, x1 = 0.6 | 9.12
338.15 K, x1 = 0.4042 | 5.4
338.15 K, x1 = 0.4996 | 6.54
338.15 K, x1 = 0.7041 | 9.43
343.15 K, x1 = 0.4996 | 5.74
343.15 K, x1 = 0.8044 | 9.9

CCCCCCCCCCCCCCCC[n+]1ccccc1.[Cl-] + O
Conditions | electrical conductivity [S/m]
293.15 K, 100 kPa, x1 = 3.6e-06 | 0.0028
293.15 K, 100 kPa, x1 = 7.21e-06 | 0.005
293.15 K, 100 kPa, x1 = 1.442e-05 | 0.0091
298.15 K, 100 kPa, x1 = 3.6e-06 | 0.0028
298.15 K, 100 kPa, x1 = 7.21e-06 | 0.0051
298.15 K, 100 kPa, x1 = 1.081e-05 | 0.0076
298.15 K, 100 kPa, x1 = 1.442e-05 | 0.0098
298.15 K, 100 kPa, x1 = 9.009e-05 | 0.02
303.15 K, 100 kPa, x1 = 3.6e-06 | 0.003
303.15 K, 100 kPa, x1 = 7.21e-06 | 0.0057
303.15 K, 100 kPa, x1 = 1.081e-05 | 0.0083
303.15 K, 100 kPa, x1 = 9.009e-05 | 0.021
308.15 K, 100 kPa, x1 = 3.6e-06 | 0.0034
308.15 K, 100 kPa, x1 = 7.21e-06 | 0.0065
308.15 K, 100 kPa, x1 = 1.081e-05 | 0.0095
308.15 K, 101 kPa, x1 = 5.4e-07 | 0.000222
308.15 K, 101 kPa, x1 = 9e-07 | 0.00029
308.15 K, 101 kPa, x1 = 1.62e-06 | 0.0004
308.15 K, 101 kPa, x1 = 2.34e-06 | 0.000465
308.15 K, 101 kPa, x1 = 2.88e-06 | 0.000581
308.15 K, 101 kPa, x1 = 3.78e-06 | 0.000705
308.15 K, 101 kPa, x1 = 4.5e-06 | 0.000794
308.15 K, 101 kPa, x1 = 5.59e-06 | 0.000937
308.15 K, 101 kPa, x1 = 6.85e-06 | 0.00106
308.15 K, 101 kPa, x1 = 7.93e-06 | 0.001222
308.15 K, 101 kPa, x1 = 9.01e-06 | 0.001438
308.15 K, 101 kPa, x1 = 1.009e-05 | 0.00159
308.15 K, 101 kPa, x1 = 1.117e-05 | 0.001701
308.15 K, 101 kPa, x1 = 1.333e-05 | 0.00209
308.15 K, 101 kPa, x1 = 1.55e-05 | 0.00219
308.15 K, 101 kPa, x1 = 1.766e-05 | 0.00237
308.15 K, 101 kPa, x1 = 1.982e-05 | 0.00248
308.15 K, 101 kPa, x1 = 2.18e-05 | 0.00259
308.15 K, 101 kPa, x1 = 2.397e-05 | 0.00264
308.15 K, 101 kPa, x1 = 2.595e-05 | 0.00278
308.15 K, 101 kPa, x1 = 3.009e-05 | 0.00297
308.15 K, 101 kPa, x1 = 3.406e-05 | 0.00314
308.15 K, 101 kPa, x1 = 3.802e-05 | 0.00328
308.15 K, 101 kPa, x1 = 4.18e-05 | 0.00342
308.15 K, 101 kPa, x1 = 4.559e-05 | 0.00356
308.15 K, 101 kPa, x1 = 4.919e-05 | 0.00369
308.15 K, 101 kPa, x1 = 5.099e-05 | 0.00375
308.15 K, 101 kPa, x1 = 6e-05 | 0.00403
308.15 K, 101 kPa, x1 = 6.847e-05 | 0.00432
308.15 K, 101 kPa, x1 = 7.658e-05 | 0.00454
308.15 K, 101 kPa, x1 = 8.433e-05 | 0.00477
308.15 K, 101 kPa, x1 = 9.189e-05 | 0.00497
308.15 K, 101 kPa, x1 = 9.91e-05 | 0.00516
308.15 K, 101 kPa, x1 = 0.000106 | 0.00533
308.15 K, 101 kPa, x1 = 0.0001126 | 0.0055
313.15 K, 100 kPa, x1 = 9.009e-05 | 0.023
